The test system of assay [1] is C9ALS/FTD BAC transgenic mice (C9-500). Kind of assay: Rotarod assay in C9-500 BAC transgenic mice. The assay is classed as in vivo, mouse. The settings on record: C9-500 mice, i.p. 40 mg/kg/day, FIG. 95. The protocol:
(§1) Non-canonical Notch regulation of poly(GR) was then tested in mammalian cells. In HEK293T cells, overexpression of Notch (FIG. 91), or treatment of cells with the ATK activator SC79 (FIGS. 91 & 92) reduced Flag-GR80 level, whereas small molecule inhibitor of AKT (AKTi) or VCP (VCPi) increased Flag-GR80 level (FIG. 93). Similar to fly tissue, the Notch overexpression effect was blocked by VCPi (FIG. 91). […] On the other hand, AKTi or VCPi increased poly(GR) level (FIGS. 78 & 94). To further test the in vivo relevance, the C9ALS/FTD BAC transgenic mice (C9-500) were examined, which express a human C9orf72 gene with ˜500 G4C2 repeats. Treatment of C9-500 mice by i.p. injection of SC79 (40 mg/kg/day) improved motor behavior as detected with the rotarod assay (FIG. 95). This was correlated with rescue of muscle mitochondrial morphology (FIGS. 95 & 96) and reduction of poly(GR) (FIGS. 97 & 98) but not poly(GA) (FIGS. 98 & 99) levels in muscle tissue. […]
Female C9-500 BAC transgenic mice were i.p. injected with sc79 (Selleckchem) at 40 mg/kg/day (n=10) or vehicle (DMSO [Sigma]: PEG300 [Spectrum]: 2-Hydroxypropyl-beta-cyclodextran (20%) [Sigma] at 1:3:1) (n=8) from 16 weeks of age and continued for 3 months. […] Once all the mice were “ready”, the start button was pushed and the test began. […] The fall-off times of each animal were recorded and used for statistical analysis.
(Falling from the rotarod earlier than controls is read as motor impairment.)

Assay [2] concerns Flag-GR80 in HEK293T cells. Kind of assay: Flag-GR80 level in HEK293T cells (non-canonical Notch/AKT/VCP modulation). The assay is classed as cell-based. The settings on record: FIGS. 91-93.
A further assay concerns patient fibroblasts. Kind of assay: poly(GR) level and mitochondrial morphology in patient fibroblasts (AKT/VCP modulation). Format: cell-based, human.
Assay [3] has as its system muscle tissue of C9-500 mice. Kind of assay: Muscle mitochondrial morphology and DPR levels in C9-500 mice. The assay is classed as in vivo, mouse. As to conditions: i.p. 40 mg/kg/day. Here is the method:
as §1
Female C9-500 BAC transgenic mice were i.p. injected with sc79 (Selleckchem) at 40 mg/kg/day (n=10) or vehicle (DMSO [Sigma]: PEG300 [Spectrum]: 2-Hydroxypropyl-beta-cyclodextran (20%) [Sigma] at 1:3:1) (n=8) from 16 weeks of age and continued for 3 months. […] Once all the mice were “ready”, the start button was pushed and the test began. […] The fall-off times of each animal were recorded and used for statistical analysis. […]

In another assay the test system is GR80. Kind of assay: Effect of CAT-tailing inhibition on poly(GR) level. Format: cell-based. As to conditions: FIG. 82. The source says:
Ribosome-stalled NPC is modified by a non-templated, 40S-independent CAT-tailing process that depends on Tae2/Clbn/NEMF family proteins. CAT-tailed substrates escaping the quality control system can accumulate and form aggregates. […] Consistently, RNAi of a fly homolog of Vms1, a stress-responsive mitochondrial RQC factor that antagonizes CAT-tailing by cleaving peptidyl-tRNA bond, increased high MW GR80 signal and total GR80 abundance (FIG. 77), whereas overexpression of mammalian Vms1 (ANKZF1) had opposite effect (FIG. 78). In C9ALS fibroblasts, ANKZF1 RNAi increased, whereas NEMF RNAi decreased poly(GR) (FIG. 78). Thus steady-state poly(GR) level is positively correlated with a CAT-tailing-like process.
The role of Ala- or Thr-tRNA synthetase (AARS or TARS) was examined. […] The specificity of the ARS effect was shown by the lack of effect of the other ARSs tested (FIG. 79). Thus AARS/TARS, and possibly select other ARSs (e.g., IARS), appear to be involved in GR80 CAT-tailing, and that CAT-tailing confers stabilization, aggregation, and toxicity. Further supporting this notion, poly(GR) containing an artificial CAT-tail (GR71-AT15) formed prominent aggregates on mitochondria on its own, and its level was not affected by NEMF RNAi or anisomycin treatment (FIG. 82).

Assay [4] relates to HEK293 cells transfected with GR80. Kind of assay: mito-K+ in HEK293 cells transfected with GR80. Format: cell-based. The settings on record: HEK293 cells transfected with GR80, FIG. 53. The protocol:
(§2) Finally, it was tested whether the pathogenic mechanisms uncovered in flies are relevant to GR toxicity in patient cells. In fibroblasts from C9-ALS/FTD patients carrying C9ORF72 G4C2 repeat expansion, GR was present in the mitochondrial fraction, as shown by dot blot (FIG. 46) and immunostaining (FIG. 46), although nuclear GR was also detected (FIG. 46). […] Thus, altered mitochondrial inner membrane structure and ion homeostasis are conserved features of C9-ALS. There were also GR interactions with Mic27/Apool in patient fibroblasts (FIG. 49). Nigericin treatment (FIGS. 50 & 51) or knockdown of key MICOS components (FIGS. 49 & 52) rescued the mitochondrial defects in patient fibroblasts. […] Nigericin treatment (FIG. 54) or knockdown of key MICOS components (FIG. 53) reduced the GR level in patient cells, but nigericin had no effect on the GA level (FIG. 53).

The next assay deals with GR80 fly muscle. Kind of assay: Nigericin treatment of GR80 transgenic flies. The assay is classed as in vivo, Drosophila. The source says: To further test whether high MMP and altered ion homeostasis contribute to GR80 toxicity, GR80 flies we treated with nigericin, a K^+/H^+ antiporter that can re-balance mitochondrial matrix ion levels. […] Moreover, the aberrant interactions between MICOS subunits caused by GR80 (FIG. 42) and the elevated mito-K^+ in GR80 flies were rescued after nigericin treatment (FIGS. 41 & 42). Thus, by restoring mitochondrial ion homeostasis, nigericin may affect the MICOS structure and, in turn, GR80 stability, similar to the effects of the genetic manipulation of MICOS, although other mechanisms of nigericin action cannot be excluded.
Newly hatched flies were collected and placed into vials with instant fly food (Carolina Biological Supply Company, USA) mixed with different doses ([…]) of Nigericin (Cayman Chemical, 11437) from the stock solution (50 mM dissolved in DMSO). The flies were fed for 7 days and changed with fresh vial every 24 hours. After treatments, fly thoracic samples were harvested and used for sample preparation.

In assay [5] the test system is fibroblasts from C9-ALS/FTD patients carrying C9ORF72 G4C2 repeat expansion. Kind of assay: Nigericin treatment of C9-ALS/FTD patient fibroblasts. The assay is classed as cell-based, human. Here is the method: as §2

As to `CCOC(=O)C1=C(N)Oc2ccc(Cl)cc2C1C(C#N)C(=O)OCC` (centres unmarked) [SC79], in assay [1], the “motor behavior as detected with the rotarod assay” value is recorded as “improved”. Also, the Flag-GR80 level result in assay [2] is reported as “reduced”. The mitochondrial morphology entry in the assay on patient fibroblasts (FIG. 93) is “rescued”. For the same compound, the “poly(GR) level” value with patient fibroblasts (FIGS. 78 & 94) is listed as “significantly reduced”. For the same compound, the muscle mitochondrial morphology result in assay [3] (FIGS. 95 & 96) is reported as “rescue”. For the same compound, the “poly(GR) level in muscle tissue” value in assay [3] (FIGS. 97 & 98) was “reduction”.

Turning to `COc1ccc(C[C@H]2NC[C@H](O)[C@H]2OC(C)=O)cc1` [Anisomycin, anisomycin], in the assay on GR80, the “level of poly(GR) containing an artificial CAT-tail (GR71-AT15)” value is “not affected”.

Consider `CO[C@@H]1C[C@@H](C[C@H]2CC[C@H](C)[C@H]([C@@H](C)C(=O)O)O2)O[C@]2(O[C@](C)([C@H]3CC[C@@](C)([C@@H]4O[C@@H]([C@H]5O[C@@](O)(CO)[C@H](C)C[C@@H]5C)C[C@@H]4C)O3)C[C@H]2C)[C@@H]1C` [nigericin], for which, in assay [4], the “GR-induced mito-K+ increase” value is “reduced”. In the assay on GR80 fly muscle (GR80 flies, FIG. 44), the “GR80 level in fly muscle” value was “significantly reduced”. For the same compound, the mitochondrial morphology entry in the assay with GR80 fly muscle (GR80 flies, low concentrations of nigericin in food, FIG. 43) was “effectively restored”. For the same compound, the “GR80 fly wing-posture defect” value with GR80 fly muscle (GR80 flies, nigericin in food, FIG. 44) is “rescue”. In addition, the “aberrant interactions between MICOS subunits caused by GR80” value with GR80 fly muscle (after nigericin treatment, FIG. 42) is on record as “rescued”. Also, the “elevated mito-K+ in GR80 flies” value in the assay on GR80 fly muscle (after nigericin treatment, FIGS. 41 & 42) is recorded as “rescued”. For the same compound, the GA80 level result in the assay with GR80 fly muscle (flies, specificity control, FIG. 42) was “did not affect”. Further, in assay [5] (C9-ALS/FTD patient fibroblasts, FIG. 54), the “GR level in patient cells” value is reported as “reduced”. For the same compound, in assay [5] (C9-ALS/FTD patient fibroblasts, FIGS. 50 & 51), the “mitochondrial defects in patient fibroblasts” value was “rescued”. The GA level entry in assay [5] (patient cells, FIG. 53) is “no effect”.

For the origin of these results see patent US20220389067A1, “Methods of Treating Neurodegenerative Diseases Caused by G4C2 Expansion in C9ORF72” (The Board of Trustees of the Leland Stanford Junior …, priority 2019, published 2022).
